Consider 5 molecules from patent US20040086883A1, “Method and device for characterising and/or for detecting a bonding complex” (priority 2000, published 2004).

The subject of data set [1] is DNA-duplexes with oligo1 and oligo3. Kind of data set: Differential force test comparing two DNA-duplexes (oligo2 with oligo1 versus oligo2 with oligo3). It counts as binding. Particulars: for Q St = ΔCy3St/ΔCy5St: enrichment of Cy3-oligo2 relative to Cy5-oligo3; for Q Unt = ΔCy3Unt/ΔCy5Unt: depletion of Cy3-oligo2 relative to Cy5-oligo3.
In data set [2] the target is T1, streptavidin (Streptomyces avidinii, UniProt P22629).
T1 construct: purchased Molecular Probes, Eugene
Kind of data set: Differential force test comparing biotin/streptavidin and iminobiotin/streptavidin complexes (pillar pressing). It counts as binding. Particulars: for proportion of streptavidin transferred from the hapten on the substrate to the biotin-coated pillar: pH 10 buffer, 30 minutes contact, Alexa-Fluor-546 marked streptavidin. The text has this: Biotin and iminobiotin are bound to a substrate. Fluorescence-marked streptavidin is bound to the immobilized haptens. A plunger or pillar which is coated with biotin is moved towards the substrate in such a way that the biotin which is bound to the pillar can bind the streptavidin coupled by way of the haptens to the substrate. The pillar is then removed again. To conclude, the procedure involves determining which proportion of the streptavidin was transferred from the iminobiotin of the substrate onto the biotin of the pillar and which proportion of the streptavidin was transferred from the biotin of the substrate onto the biotin of the pillar.
20 μl of a solution with 2 mg/100 μl of NHS-PEG-biotin (Shearwater, Huntsville) was incubated under a cover glass for 1 hour on a pillar with an area of 1 cm^2. It was washed with very pure water and blown dry with nitrogen.
A glass object carrier was cleaned by a 100-minute treatment with saturated KOH-ethanol solution. The cleaned surface was incubated with 3% aminosilane (3-aminopropyldimethyl-ethoxysilane; ABCR, Karlsruhe) in 10% H2O and 87% Ethanol for 30 minutes. The silanised surface was washed with very pure water and blown dry with nitrogen. […] The tBoc protective group was then split off with trifluoro-acetic acid. NHS-biotin and NHS-iminobiotin (Sigma, St. Louis) were respectively diluted starting from a 50 mM stock solution in DMSO to give a final concentration of 5 mM with PBS (phosphate buffered saline, Sigma). The attachment of biotin or iminobiotin respectively to the amino-functionalized glass substrate was effected from that solution. That was incubated for one hour in a saturated water atmosphere, washed with very pure water and blown dry with nitrogen.
For the purposes of binding the streptavidin AlexaFluor ? -546 conjugate (Molecular Probes, Eugene), a solution was produced, involving a concentration of 0.1 mg/ml in a glycine/NaOH-buffer (pH 10). The substrate was incubated for 20 minutes with the solution, then washed for 5 minutes in that buffer and blown dry with nitrogen. […]

A further data set concerns the target avidin (Gallus gallus, UniProt P02701). Particulars: AFM force spectrometer, Florin et al. Science 1994; cited from earlier work.
Data set [3] has as its target T1, streptavidin. Kind of data set: Force test with reverse pillar pressing, biotin/streptavidin versus desthiobiotin/streptavidin. It counts as binding. As to the method:
The polymerized structured and unstructured PDMS plates were cut to a size of 1 cm^2. Then the pieces were exposed to an H2O plasma in a plasma furnace at 2 mbar for 30 s. The oxidized surface was incubated with a solution of 2% aldehyde silane (4-triethoxysilylbutanal, Amchro, Hattersheim, Germany) in 10% H2O and 88% ethanol for 30 minutes. The silanised surface was washed with ethanol and very pure water and blown dry with nitrogen.
The functionalized substrates and pillars were incubated overnight in PBS (phosphate buffered saline; Sigma, St. Louis, USA) with 2% BSA (bovine serum albumin; Roth, Karlsruhe, Germany). In that case BSA binds with its amino groups to the aldehyde groups of the surface. For stabilization purposes the resulting Schiff's bases were reduced with 1% sodium borohydride for 15 minutes. […]
Depending on the respective pillar composition a fluorescence-marked streptavidin-AlexaFluor ? -647 conjugate (Molecular Probes, Eugene) was bound to the substrate or the pillar. […]
The reverse implementation permits evaluation which is independent of the coupling efficiency. […] That assumption is permissible here by virtue of the very similar properties of the binding partners BP1 and BP4 to be compared (for example size) and can also be checked by measurement of fluorescence intensity prior to the pillar pressing procedure. […]

{Cy3} = Cy3 fluorescent dye label

T1 sequence (P22629 25-183): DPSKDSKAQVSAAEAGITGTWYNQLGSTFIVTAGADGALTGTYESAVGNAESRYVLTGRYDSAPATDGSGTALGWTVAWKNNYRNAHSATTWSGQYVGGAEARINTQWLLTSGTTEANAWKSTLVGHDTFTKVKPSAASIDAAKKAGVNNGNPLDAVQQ
Chain of avidin (P02701 25-152, species assumed): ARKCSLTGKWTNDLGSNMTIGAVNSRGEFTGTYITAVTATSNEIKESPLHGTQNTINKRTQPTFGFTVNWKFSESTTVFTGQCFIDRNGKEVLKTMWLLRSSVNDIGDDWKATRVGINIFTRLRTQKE

As for “5′TTGCTCCCAGACTCTCTGCTGAAAGTCCCTTTGATAATCGTAACGAGGGGTTATACGCCGTAAAGCCCGGAGA-Cy3 [oligo2a]”, in data set [1] (from QSt and QUnt), the “unbinding force of the duplex with oligo3, higher than the duplex between oligo 2b and oligo3” value is “at least 500%”. For the same molecule, the “QSt = QA St/QB St” value in data set [1] (pillar, Experiment 2a relative to reference experiment 2b) was determined as 1.97. Further, in data set [1] (pillar, corrected by factor 0.82), the “QA St corr.” value amounted to 0.98. Further, the “Q St = ΔCy3St/ΔCy5St” value in data set [1] (pillar) was found to be 1.20 ± 0.08. For the same molecule, the “QUnt = QA Unt/QB Unt” value in data set [1] (substrate, Experiment 2a relative to reference experiment 2b) is given as 1.92. For the same molecule, the “QA Unt corr.” value in data set [1] (substrate, corrected by factor 1.39) worked out at 0.96. Moreover, the “Q Unt = ΔCy3Unt/ΔCy5Unt” value in data set [1] (substrate) turned out to be 0.69±0.09.
Consider `O=C(O)CCCC[C@@H]1SC[C@@H]2NC(=O)N[C@@H]21` [biotin], for which the “relative strength of the streptavidin-hapten bond” value on streptavidin [2] (biotin versus iminobiotin, assuming identical coupling efficiency and equal density) was “stronger”. At streptavidin [2], the “proportion of streptavidin transferred from the hapten on the substrate to the biotin-coated pillar” value is listed as 15%. The “unbinding force of the receptor-ligand pair” value on avidin is listed as 160 pN.
As for `C[C@@H]1NC(=O)N[C@@H]1CCCCCC(=O)O` [desthiobiotin], the “quotient of the transfer to desthiobiotin and the transfer to biotin” value on streptavidin [3] (average of both tests) came out at 0.18. For the same molecule, at streptavidin [3] (reverse pillar pressing), the “binding force to streptavidin relative to biotin” value is reported as “weaker”.
Take `N=C1N[C@H]2[C@H](CS[C@H]2CCCCC(=O)O)N1` [iminobiotin]: the “proportion of streptavidin transferred from the hapten on the substrate to the biotin-coated pillar” value on streptavidin [2] is 30%. For the same molecule, the “unbinding force of the receptor-ligand pair” value on avidin is on record as 85±15 pN.

B1: 5′ACTCTCTGCTGAAAGTCCCTTTGATAATCGTAACGAGGGGTTATACGCCGTAAAGCCGGAGA-Cy3 (nucleic acid)
chain: ACTCTCTGCTGAAAGTCCCTTTGATAATCGTAACGAGGGGTTATACGCCGTAAAGCCGGAGA
modifications: DNA, 3' {Cy3}, backbone not given here
On to B1, for which the “Q St = ΔCy3St/ΔCy5St” value in data set [1] (pillar) came to 0.61 ± 0.08. In addition, in data set [1] (substrate), the “Q Unt = ΔCy3Unt/ΔCy5Unt” value is listed as 0.36±0.08.
